Results as given in patent publication US20260116867A1, “PROTEOLYSIS TARGETING CHIMERAS FOR HUMAN PREGNANE X RECEPTOR AND FOR DEGRADATION OF GSPT1” (ST. JUDE CHILDREN'S RESEARCH HOSPITAL, priority 2022, published 2026).
“Also recorded” adds a separate entry of the source.

Tests used:
His-CRBN/DDB1 = target: T1, His-CRBN/DDB1 (Homo sapiens, UniProt Q96SW2); assay: TR-FRET CRBN competitive binding assay (BODIPY FL thalidomide probe); conditions: for CRBN binding (in words): FIG. 9D
T1 construct: made in house; host or cells: Sf9 insect cells (baculovirus)
Experimental: The pFastBacDual-6xHis-CRBN/DDB1 plasmid was cloned by GenScript and used for baculoviral expression of His-CRBN and untagged DDB1. Protein was expressed and purified essentially as described previously. The bacmid was produced in MAX Efficiency DH10Bac Competent Cells (Thermo Fisher Scientific) according to the manufacturer's instructions. To generate the P1 virus, 1×10^6 Sf9 cells were plated in each well of a six-well plate in 2 mL Sf-900 III SFM and transfected with 7 μg bacmid using Cellfectin II reagent (Thermo Fisher Scientific). After 6 h at 27° C., the media was replaced with 2 mL fresh Sf-900 III SFM. After three days, the supernatant was collected, centrifuged at 500×g for 5 min to remove cells and debris, transferred to new tubes, and stored at 4° C. To generate P2 virus, 2 mL P1 virus was added to 1×10^8 Sf9 cells in 50 mL Sf-900 III SFM and shaken at 27° C. for three days. The supernatant was collected and clarified as above. For protein expression, 5 mL P2 virus was added to each liter of Sf cells (2×10^6 cells/mL) and shaken at 27° C. for three days. Cells containing expressed protein were pelleted by centrifugation at 500×g for 5 min, the supernatant was removed, and pellets were stored at −80° C. until processing. […] The suspension was incubated on ice for 1 h, gently sonicated, and centrifuged for 1 h at 40,000×g at 4° C. The supernatant was applied to Ni-NTA Superflow resin (QIAGEN) equilibrated with lysis buffer. The resin was washed with 10 column volumes (CV) of lysis buffer, and proteins were eluted with 10 CV lysis buffer containing 500 mM imidazole. The solution was diluted to 200 mM NaCl using lysis buffer without NaCl and applied to a HiTrap ANX FF (High Sub) column (Cytiva) equilibrated with ANX binding buffer [50 mM Tris (pH 7.5), 200 mM NaCl, 3 mM TCEP]. The column was washed with 10 CV ANX binding buffer followed by 10 CV ANX wash buffer [50 mM Bis-Tris (pH 6.0), 200 mM NaCl, 3 mM TCEP]. A 20 CV linear gradient was then immediately applied from ANX binding buffer to ANX binding buffer containing 1 M NaCl using an AKTA avant chromatography system (Cytiva). The purest fractions were applied to a HiLoad 26/600 Superdex 200 pg size exclusion column equilibrated with 10 mM HEPES (pH 7.0), 240 mM NaCl, and 3 mM TCEP. Pure protein was concentrated to 20-30 mg/mL in Pierce PES Protein Concentrators (Thermo Fisher Scientific), flash frozen in liquid nitrogen, and stored at −80° C.
The assay buffer composition was 50 mM Tris (pH 7.5), 0.1% Triton X-100, 0.01% bovine serum albumin, and 1 mM DTT. […] Lastly, 5 μL/well of 8 nM Tb-anti-His and 8 nM His-CRBN/DDB1 in assay buffer was added. […] The plates were then protected from light exposure and incubated for 60 minutes at room temperature (RT). After incubation, the TR-FRET signal from each well was collected with a PHERAstar FS Microplate Reader (BMG Labtech). The percent inhibition for each well was calculated using equation 2: […]

GSPT1 = target: T2, GSPT1 (Homo sapiens, UniProt P15170+Q96SW2); assay: Western blot of GSPT1 protein in SNU—C4 3xFLAG-PXR KI cells; type: cell-based; conditions: for GSPT1 Loss at 10 μM (% ± SD): 10 μM compound, calculated from western blots FIG. 9A; for GSPT1 degradation (in words): western blot, SNU—C4 3xFLAG-PXR KI cells
T2 construct: endogenous in cells
Experimental: (§1) The following day, DMSO or compounds were added to result in 0.5% DMSO and the indicated compound concentrations, and cells were incubated for the indicated time points. Cells were lysed and subjected to western blotting as above using antibodies against FLAG (Sigma-Aldrich, cat. #F3165, 1:2,000 dilution), GSPT1 (Abcam, cat. #ab126090, 1:4,000 dilution), and R-Actin (Cell Signaling Technology, cat. #4967, 1:2,000 dilution).

PXR [1] = target: T3, PXR (Homo sapiens, UniProt O75469); assay: Western blot of endogenous 3xFLAG-PXR protein in SNU—C4 3xFLAG-PXR KI cells; type: cell-based; set-up: To assess SJPYT-195 activity against endogenous PXR, CRISPR-Cas9 was used; endogenous in cells; conditions: western blot, SNU—C4 3xFLAG-PXR KI cells
T3 sequence (O75469 1-434): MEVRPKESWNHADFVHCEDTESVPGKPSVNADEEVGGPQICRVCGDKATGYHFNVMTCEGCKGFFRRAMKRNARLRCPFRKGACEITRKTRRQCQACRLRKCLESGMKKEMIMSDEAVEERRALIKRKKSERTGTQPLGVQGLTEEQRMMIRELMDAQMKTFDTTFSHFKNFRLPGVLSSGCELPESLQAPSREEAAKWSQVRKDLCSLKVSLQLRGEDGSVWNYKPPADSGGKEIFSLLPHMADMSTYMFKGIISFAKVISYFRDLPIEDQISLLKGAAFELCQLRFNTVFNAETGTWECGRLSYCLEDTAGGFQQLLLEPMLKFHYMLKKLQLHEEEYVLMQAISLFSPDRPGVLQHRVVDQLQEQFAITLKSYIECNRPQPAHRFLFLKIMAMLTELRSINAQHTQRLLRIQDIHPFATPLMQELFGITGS
Experimental: as §1

PXR [2] = target: T3, PXR; assay: cell-based hPXR inverse agonistic assay; conditions: for inhibition at 10 µM: read-out: Inverse agonist (% inhibition at 10 μM); for IC50: read-out: Inverse agonist (IC50/μM)
PXR [3] = target: T3, PXR; assay: cell-based hPXR antagonistic assay; conditions: for inhibition at 10 µM: read-out: Antagonist (% inhibition at 10 μM); for IC50: read-out: Antagonist (IC50/μM)
PXR [4] = target: T3, PXR; assay: hPXR binding assay; conditions: for inhibition at 10 µM: read-out: Binding (% inhibition at 10 μM)
PXR [5] = target: T3, PXR; assay: cell-based hPXR agonistic assay; conditions: for Agonist (% activation at 10 μM): rifampicin at 10 μM as 100% activation, DMSO (0.3%) as 0%

`CC(C)(C)c1cc(N)cc(Oc2cccc3c2C(=O)N(C2CCC(=O)NC2=O)C3=O)c1` (centres unmarked) [Compound A1, 4-(3-amino-5-(tert-butyl)phenoxy)-2-(2,6-dioxopiperidin-3-yl)isoindoline-1,3-dione] was tested, and the “CRBN binding (in words)” value (His-CRBN/DDB1) was “maintained strong CRBN binding”, the “GSPT1 Loss at 10 μM (% ± SD)” value (GSPT1) was 23 ± 2.8% and the “GSPT1 degradation (in words)” value (GSPT1) was “lost the degradation activity of GSPT1”.
With `CC(=O)Nc1cc(Nc2cccc3c2C(=O)N(C2CCC(=O)NC2=O)C3=O)cc(C(C)(C)C)c1` (centres unmarked) [Compound A3, N-(3-(tert-butyl)-5-((2-(2,6-dioxopiperidin-3-yl)-1,3-dioxoisoindolin-4-yl)amino)phenyl)acetamide] the “CRBN binding (in words)” value (His-CRBN/DDB1; listed as SJPYT-231) was “strongest CRBN binding of all tested compounds; also recorded: maintained strong CRBN binding; also recorded: higher affinity CRBN binder than thalidomide or pomalidomide”, the “GSPT1 Loss at 10 μM (% ± SD)” value (GSPT1) was 15 ± 21% and the “GSPT1 degradation (in words)” value (GSPT1; listed as SJPYT-231) was “did not affect either PXR or GSPT1 levels; also recorded: lost the degradation activity of GSPT1”. For the same molecule, the “PXR protein level (in words)” value (PXR [1]) was “did not affect either PXR or GSPT1 levels”.
In the case of `COc1ccc(OC)c(-n2nnc(C(=O)Nc3cc(OC(=O)CNc4cccc5c4C(=O)N(C4CCC(=O)NC4=O)C5=O)cc(C(C)(C)C)c3)c2C)c1` (centres unmarked) [Compound M7, 3-(tert-butyl)-5-(1-(2,5-dimethoxyphenyl)-5-methyl-1H-1,2,3-triazole-4-carboxamido)phenyl (2-(2,6-dioxopiperidin-3-yl)-1,3-dioxoisoindolin-4-yl)glycinate], the inhibition at 10 µM (PXR [2]) is reported as 103%, the IC50 (PXR [2]) is reported as 0.2 ± 0.038 µM and the “CRBN binding (in words)” value (His-CRBN/DDB1) is reported as “retained strong binding of CRBN”. The “GSPT1 Loss at 10 μM (% ± SD)” value (GSPT1) was 46 ± 1.5%, the “GSPT1 degradation (in words)” value (GSPT1) was “only weakly degraded GSPT1” and the inhibition at 10 µM (PXR [3]) was 71%. It also gave an IC50 (PXR [3]) of 1.38 ± 0.47 µM.
In the case of `COc1ccc(OC)c(-n2nnc(C(=O)Nc3cc(NC(=O)CNc4cccc5c4C(=O)N(C4CCC(=O)NC4=O)C5=O)cc(C(C)(C)C)c3)c2C)c1` (centres unmarked) [Compound M8, N-(3-(tert-butyl)-5-(2-((2-(2,6-dioxopiperidin-3-yl)-1,3-dioxoisoindolin-4-yl)amino)acetamido)phenyl)-1-(2,5-dimethoxyphenyl)-5-methyl-1H-1,2,3-triazole-4-carboxamide], the inhibition at 10 µM (PXR [2]) is reported as 19%, the IC50 (PXR [2]) is reported as 13.2 ± 1.28 µM and the “CRBN binding (in words)” value (His-CRBN/DDB1) is reported as “retained strong binding of CRBN”. The “GSPT1 Loss at 10 μM (% ± SD)” value (GSPT1) was 89 ± 3.1% and the “GSPT1 degradation (in words)” value (GSPT1) was “strong GSPT1 degradation”.
In the case of `COc1ccc(OC)c(-n2nnc(C(=O)Nc3cc(OCC(=O)Nc4cccc5c4C(=O)N(C4CCC(=O)NC4=O)C5=O)cc(C(C)(C)C)c3)c2C)c1` (centres unmarked) [Compound M9, N-(3-(tert-butyl)-5-(2-((2-(2,6-dioxopiperidin-3-yl)-1,3-dioxoisoindolin-4-yl)amino)-2-oxoethoxy)phenyl)-1-(2,5-dimethoxyphenyl)-5-methyl-1H-1,2,3-triazole-4-carboxamide], the “CRBN binding (in words)” value (His-CRBN/DDB1) is reported as “greatly reduced CRBN binding”, the EC50 (His-CRBN/DDB1; TR-FRET competitive binding, derived from FIG. 9D, read-out: CRBN Binding EC50 ± SD) is reported as over 333 nM and the “GSPT1 Loss at 10 μM (% ± SD)” value (GSPT1) is reported as 20 ± 4.8%.
With `COc1ccc(OC)c(-n2nnc(C(=O)Nc3cc(OCCNc4cccc5c4C(=O)N(C4CCC(=O)NC4=O)C5=O)cc(C(C)(C)C)c3)c2C)c1` (centres unmarked) [Compound M10, N-(3-(tert-butyl)-5-(2-((2-(2,6-dioxopiperidin-3-yl)-1,3-dioxoisoindolin-4-yl)amino)ethoxy)phenyl)-1-(2,5-dimethoxyphenyl)-5-methyl-1H-1,2,3-triazole-4-carboxamide] the inhibition at 10 µM (PXR [2]) was 128%, the IC50 (PXR [2]) was 0.042 ± 0.0085 µM and the “CRBN binding (in words)” value (His-CRBN/DDB1) was “retained strong binding of CRBN”. The “GSPT1 Loss at 10 μM (% ± SD)” value (GSPT1) was 72 ± 2.3%, the “GSPT1 degradation (in words)” value (GSPT1) was “strong GSPT1 degradation” and the inhibition at 10 µM (PXR [3]) was 102%. The IC50 (PXR [3]) was 0.23 ± 0.023 µM.
`COc1ccc(OC)c(-n2nnc(C(=O)Nc3cc(NCCNc4cccc5c4C(=O)N(C4CCC(=O)NC4=O)C5=O)cc(C(C)(C)C)c3)c2C)c1` (centres unmarked) [Compound M11, N-(3-(tert-butyl)-5-((2-((2-(2,6-dioxopiperidin-3-yl)-1,3-dioxoisoindolin-4-yl)amino)ethyl)amino)phenyl)-1-(2,5-dimethoxyphenyl)-5-methyl-1H-1,2,3-triazole-4-carboxamide] was tested, and the inhibition at 10 µM (PXR [2]) was 135%, the IC50 (PXR [2]) was 0.0079 µM and the “CRBN binding (in words)” value (His-CRBN/DDB1) was “retained strong binding of CRBN”. For the same molecule, the “GSPT1 Loss at 10 μM (% ± SD)” value (GSPT1) was 63 ± 13%, the “GSPT1 degradation (in words)” value (GSPT1) was “strong GSPT1 degradation” and the inhibition at 10 µM (PXR [3]) was 109%. It also gave an IC50 (PXR [3]) of 0.026 ± 0.0008 µM, an IC50 (PXR [4]) of 0.67 ± 0.014 µM and an inhibition at 10 µM (PXR [4]) of 61%.
`COc1ccc(OC)c(-n2nnc(C(=O)Nc3cc(C(C)(C)C)ccc3OCCCCN3C(=O)CCC(N4Cc5c(N)cccc5C4=O)C3=O)c2C)c1` (centres unmarked) [Compound N1, N-(2-(4-(3-(4-amino-1-oxoisoindolin-2-yl)-2,6-dioxopiperidin-1-yl)butoxy)-5-(tert-butyl)phenyl)-1-(2,5-dimethoxyphenyl)-5-methyl-1H-1,2,3-triazole-4-carboxamide] was tested, and the “Agonist (% activation at 10 μM)” value (PXR [5]) was “(55 ± 5)%”, the EC50 (PXR [5]; NA = no value within concentration range tested (highest 30 μM), read-out: Agonist (EC50/μM)) was 0.75 ± 0.11 µM and the IC50 (PXR [4]) was 1.27 ± 0.48 µM. For the same molecule, the inhibition at 10 µM (PXR [4]) was 34%.
With `COc1ccc(OC)c(-n2nnc(C(=O)Nc3cc(OCCCCCCCCN4C(=O)CCC(N5C(=O)c6cccc(N)c6C5=O)C4=O)cc(C(C)(C)C)c3)c2C)c1` (centres unmarked) [Compound N5, N-(3-((8-(3-(4-amino-1,3-dioxoisoindolin-2-yl)-2,6-dioxopiperidin-1-yl)octyl)oxy)-5-(tert-butyl)phenyl)-1-(2,5-dimethoxyphenyl)-5-methyl-1H-1,2,3-triazole-4-carboxamide] the “Agonist (% activation at 10 μM)” value (PXR [5]) was “(81 ± 5)%”.
`CO[C@H]1/C=C/O[C@@]2(C)Oc3c(C)c(O)c4c(O)c(c(/C=N/N5CCN(C)CC5)c(O)c4c3C2=O)NC(=O)/C(C)=C\C=C\[C@H](C)[C@H](O)[C@@H](C)[C@@H](O)[C@@H](C)[C@H](OC(C)=O)[C@@H]1C` [Rifampicin, reference compound] was tested, and the “Agonist (% activation at 10 μM)” value (PXR [5]) was “(100 ± 2)%”.
